Assay results published in EP0238178B1, “Novel derivatives of erythromycylamine” (ELI LILLY AND COMPANY, priority 1986, dated 1987).
Converted amounts (≈) assume the structure as drawn. Read-outs that look alike come from different tables or passages of the source.

Key:
[1] = tested on: Staphylococcus aureus V41; assay: MIC, standard agar-dilution assay; assay type: cell-based; conditions: Staphylococcus aureus V41, Penicillin-resistant strain, inducibly-resistant to erythromycin; read-out: MIC
Text: (§1) In addition to excellent in vitro activity against erythromycin-sensitive bacteria, several members of this new series have shown in vitro activity against erythromycin-resistant strains. These include strains which are inducibly-resistant to erythromycin (S.. aureus V41 and X400 and S. epidermidis EPI1) and even strains which are constitutively-resistant (S. epidermidis 270).

[2] = tested on: Staphylococcus aureus X400; assay: MIC, standard agar-dilution assay; assay type: cell-based; conditions: Staphylococcus aureus X400, Methicillin-resistant strain, inducibly-resistant to erythromycin; read-out: MIC
Text: as §1

[3] = tested on: Staphylococcus epidermidis EPI1; assay: MIC, standard agar-dilution assay; assay type: cell-based
Text: as §1

[4] = tested on: Streptococcus pneumoniae Park I; assay: MIC, standard agar-dilution assay; assay type: cell-based; conditions: read-out: MIC
[5] = tested on: Streptococcus pyogenes C203; assay: MIC, standard agar-dilution assay; assay type: cell-based; conditions: read-out: MIC
[6] = tested on: Staphylococcus aureus S13E; assay: MIC, standard agar-dilution assay; assay type: cell-based
[7] = tested on: Streptococcus sp. group D 2041; assay: MIC, standard agar-dilution assay; assay type: cell-based; conditions: read-out: MIC
[8] = tested on: Staphylococcus epidermidis 222; assay: MIC, standard agar-dilution assay; assay type: cell-based
[9] = tested on: Escherichia coli EC14; assay: MIC, standard agar-dilution assay; assay type: cell-based; conditions: read-out: MIC
[10] = tested on: Haemophilus influenzae 76; assay: MIC, standard agar-dilution assay; assay type: cell-based; conditions: Haemophilus influenzae 76, Ampicillin-resistant strain; read-out: MIC
[11] = tested on: Streptococcus sp. group D X66; assay: MIC, standard agar-dilution assay; assay type: cell-based
[12] = tested on: Klebsiella pneumoniae X68; assay: MIC, standard agar-dilution assay; assay type: cell-based; conditions: read-out: MIC
[13] = tested on: Staphylococcus aureus X1.1; assay: MIC, standard agar-dilution assay; assay type: cell-based; conditions: read-out: MIC
[14] = tested on: Staphylococcus aureus; assay: Experimental bacterial infection in mice, ED50; assay type: in vivo; conditions: Staphylococcus aureus, two doses, dose protecting 50% of animals
Description: (§2) The new derivatives of this invention have also shown in vivo antimicrobial activity against experimental bacterial infections. When two doses of test compound were administered to mice in experimental infections, the activity observed was measured as an EDso value [effective dose in mg/kg to protect 50% of the test animals: see Warren Wick, et al., J. Bacteriol. 81, 233-235 (1961)].

[15] = tested on: Streptococcus pyogenes; assay: Experimental bacterial infection in mice, ED50; assay type: in vivo; conditions: Streptococcus pyogenes, po, two doses, dose protecting 50% of animals, read-out: Oral ED50
Description: as §2

[16] = tested on: Streptococcus pneumoniae; assay: Experimental bacterial infection in mice, ED50; assay type: in vivo; conditions: Streptococcus pneumoniae, po, two doses, dose protecting 50% of animals, read-out: Oral ED50
Description: as §2

[17] = tested on: Haemophilus influenzae C.L.; assay: MIC, standard agar-dilution assay; assay type: cell-based; conditions: Ampicillin-sensitive strain, read-out: MIC
[18] = Streptococcus sp. group D X66, read-out: MIC

## CCCN1CO[C@@H]2[C@@H](C)[C@@H]1[C@H](C)C[C@@](C)(O)[C@H](O[C@@H]1O[C@H](C)C[C@H](N(C)C)[C@H]1O)[C@@H](C)[C@H](O[C@H]1C[C@@](C)(OC)[C@@H](O)[C@H](C)O1)[C@@H](C)C(=O)O[C@H](CC)[C@@]2(C)O [Compound 59]
[1]
  MIC: 8 µg/mL (≈ 10.1 µM)
[2]
  MIC: 8 µg/mL (≈ 10.1 µM)
[3]
  MIC: > 128 µg/mL
[4]
  MIC: < 0.008 µg/mL
[5]
  MIC: < 0.008 µg/mL
[6]
  MIC: 0.125 µg/mL (≈ 0.158 µM)
[7]
  MIC: 1 µg/mL (≈ 1.27 µM)
[8]
  MIC: 0.125 µg/mL (≈ 0.158 µM)
[9]
  MIC: 32 µg/mL (≈ 40.6 µM)
[10]
  MIC: 2 µg/mL (≈ 2.53 µM)
[11]; Streptococcus
  MIC: 0.125 µg/mL (≈ 0.158 µM)
[12]
  MIC: 128 µg/mL (≈ 162 µM)
[13]
  MIC: 0.25 µg/mL (≈ 0.317 µM)
[14]; po, read-out: Oral ED50
  ED50: 7.2 mg/kg
[15]
  ED50: 4.8 mg/kg
[16]
  ED50: 5 mg/kg
[17]
  MIC: 1 µg/mL (≈ 1.27 µM)

## CC[C@H]1OC(=O)[C@H](C)[C@@H](O[C@H]2C[C@@](C)(OC)[C@@H](O)[C@H](C)O2)[C@H](C)[C@@H](O[C@@H]2O[C@H](C)C[C@H](N(C)C)[C@H]2O)[C@](C)(O)C[C@@H](C)[C@H]2[C@H](C)[C@@H](OCN2C2CCCC2)[C@]1(C)O [Compound 60]
[1]
  MIC: > 128 µg/mL
[2]
  MIC: > 128 µg/mL
[3]
  MIC: > 128 µg/mL
[4]
  MIC: 0.06 µg/mL (≈ 0.0736 µM)
[5]
  MIC: 0.125 µg/mL (≈ 0.153 µM)
[6]
  MIC: 2 µg/mL (≈ 2.45 µM)
[7]
  MIC: 8 µg/mL (≈ 9.81 µM)
[8]; read-out: MIC
  MIC: 1 µg/mL (≈ 1.23 µM)
[9]
  MIC: 64 µg/mL (≈ 78.5 µM)
[10]
  MIC: 4 µg/mL (≈ 4.91 µM)
[11]; [18]
  MIC: 0.5 µg/mL (≈ 0.613 µM)
[12]
  MIC: 64 µg/mL (≈ 78.5 µM)
[13]
  MIC: 1 µg/mL (≈ 1.23 µM)
[14]; po, read-out: Oral ED50
  ED50: > 50 mg/kg
[14]; sc, subcutaneous, read-out: Subcutaneous ED50
  ED50: 5 mg/kg
[15]
  ED50: 10.2 mg/kg
[16]
  ED50: 9 mg/kg
[17]
  MIC: 4 µg/mL (≈ 4.91 µM)

## CC[C@H]1OC(=O)[C@H](C)[C@@H](O[C@H]2C[C@@](C)(OC)[C@@H](O)[C@H](C)O2)[C@H](C)[C@@H](O[C@@H]2O[C@H](C)C[C@H](N(C)C)[C@H]2O)[C@](C)(O)C[C@@H](C)[C@H]2[C@H](C)[C@@H](OCN2Cc2ccccc2)[C@]1(C)O [Compound 62, 9-Deoxo-9-[(benzyl)amino]-9,11-(N.O)-cyclic Methylene Adduct of Erythromycin]
[1]
  MIC: 64 µg/mL (≈ 76.5 µM)
[2]
  MIC: 128 µg/mL (≈ 153 µM)
[3]
  MIC: 64 µg/mL (≈ 76.5 µM)
[4]
  MIC: 0.06 µg/mL (≈ 0.0717 µM)
[5]
  MIC: 0.125 µg/mL (≈ 0.149 µM)
[6]
  MIC: 1 µg/mL (≈ 1.19 µM)
[7]
  MIC: 4 µg/mL (≈ 4.78 µM)
[8]; read-out: MIC
  MIC: 0.5 µg/mL (≈ 0.597 µM)
[9]
  MIC: > 128 µg/mL
[10]
  MIC: 4 µg/mL (≈ 4.78 µM)
[11]; [18]
  MIC: 0.5 µg/mL (≈ 0.597 µM)
[12]
  MIC: > 128 µg/mL
[13]
  MIC: 1 µg/mL (≈ 1.19 µM)
[14]; po, read-out: Oral ED50
  ED50: > 50 mg/kg
[15]
  ED50: 15.6 mg/kg
[16]
  ED50: 15.2 mg/kg
[17]
  MIC: 4 µg/mL (≈ 4.78 µM)

## CC[C@H]1OC(=O)[C@H](C)[C@@H](O[C@H]2C[C@@](C)(OC)[C@@H](O)[C@H](C)O2)[C@H](C)[C@@H](O[C@@H]2O[C@H](C)C[C@H](N(C)C)[C@H]2O)[C@](C)(O)C[C@@H](C)[C@H](N(C)C)[C@H](C)[C@@H](O)[C@]1(C)O [Compound 69, 9-Deoxo-9-(dimethylamino)erythromycin]
[1]
  MIC: 64 µg/mL (≈ 83.9 µM)
[2]
  MIC: 64 µg/mL (≈ 83.9 µM)
[3]
  MIC: > 128 µg/mL
[5]
  MIC: 0.25 µg/mL (≈ 0.328 µM)
[6]
  MIC: 2 µg/mL (≈ 2.62 µM)
[7]
  MIC: 4 µg/mL (≈ 5.24 µM)
[8]; read-out: MIC
  MIC: 2 µg/mL (≈ 2.62 µM)
[9]
  MIC: 128 µg/mL (≈ 168 µM)
[10]
  MIC: 8 µg/mL (≈ 10.5 µM)
[11]; [18]
  MIC: 0.5 µg/mL (≈ 0.655 µM)
[12]
  MIC: > 128 µg/mL
[13]
  MIC: 4 µg/mL (≈ 5.24 µM)
[14]; po, read-out: Oral ED50
  ED50: > 43.8 mg/kg
[15]
  ED50: 21.9 mg/kg
[16]
  ED50: 43.5 mg/kg
[17]
  MIC: 2 µg/mL (≈ 2.62 µM)

## CC[C@H]1OC(=O)[C@H](C)[C@@H](O[C@H]2C[C@@](C)(OC)[C@@H](O)[C@H](C)O2)[C@H](C)[C@@H](O[C@@H]2O[C@H](C)C[C@H](N(C)C)[C@H]2O)[C@](C)(O)C[C@@H](C)[C@H](N(C)C(C)C)[C@H](C)[C@@H](O)[C@]1(C)O [Compound 70, 9-Deoxo-9-[(N-methyl-N-isopropyl)amino]erythromycin]
[1]
  MIC: > 128 µg/mL
[2]
  MIC: > 128 µg/mL
[3]
  MIC: > 128 µg/mL
[4]
  MIC: 0.5 µg/mL (≈ 0.632 µM)
[5]
  MIC: 0.5 µg/mL (≈ 0.632 µM)
[6]
  MIC: 8 µg/mL (≈ 10.1 µM)
[7]
  MIC: 32 µg/mL (≈ 40.5 µM)
[8]; read-out: MIC
  MIC: 8 µg/mL (≈ 10.1 µM)
[9]
  MIC: > 128 µg/mL
[10]
  MIC: 32 µg/mL (≈ 40.5 µM)
[11]; [18]
  MIC: 2 µg/mL (≈ 2.53 µM)
[12]
  MIC: > 128 µg/mL
[13]
  MIC: 8 µg/mL (≈ 10.1 µM)
[17]
  MIC: 32 µg/mL (≈ 40.5 µM)
